Test results as given in PMC6746850, “Identification and Molecular Characterization of Superoxide Dismutases Isolated From A Scuticociliate Parasite: Physiological Role in Oxidative Stress” (Scientific Reports, 2019).

What was measured:
Pd-Fe-SOD (FSD) = target: T1, Pd-Fe-SOD (FSD) (Philasterides dicentrarchi, UniProt A0A481XSU7); experiment: SOD activity staining (NBT) in native PAGE; type: biochemical; conditions: 100 μM inhibitor; anion-exchange fraction P2 (methods also describe 30 min treatment of live ciliates before lysis)
T1 construct: native enzyme, 60-65 kDa activity band in anion-exchange fraction P2 on native PAGE; homodimer
T1 sequence (A0A481XSU7 22-249): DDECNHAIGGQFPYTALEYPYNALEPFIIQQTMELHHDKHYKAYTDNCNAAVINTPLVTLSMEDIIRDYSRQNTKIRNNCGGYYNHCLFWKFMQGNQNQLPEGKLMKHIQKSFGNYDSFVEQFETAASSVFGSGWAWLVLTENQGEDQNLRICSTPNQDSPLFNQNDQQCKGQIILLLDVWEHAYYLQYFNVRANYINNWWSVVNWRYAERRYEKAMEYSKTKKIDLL

Pd-Mn-SOD (MSD) = target: T2, Pd-Mn-SOD (MSD) (Philasterides dicentrarchi, UniProt A0A410JA19); experiment: SOD activity staining (NBT) in native PAGE; type: biochemical; conditions: 100 μM inhibitor; anion-exchange fraction P2 (methods also describe 30 min treatment of live ciliates before lysis)
T2 construct: native enzyme, about 50 kDa activity band in anion-exchange fraction P2 on native PAGE; homodimer
T2 sequence (A0A410JA19 13-220): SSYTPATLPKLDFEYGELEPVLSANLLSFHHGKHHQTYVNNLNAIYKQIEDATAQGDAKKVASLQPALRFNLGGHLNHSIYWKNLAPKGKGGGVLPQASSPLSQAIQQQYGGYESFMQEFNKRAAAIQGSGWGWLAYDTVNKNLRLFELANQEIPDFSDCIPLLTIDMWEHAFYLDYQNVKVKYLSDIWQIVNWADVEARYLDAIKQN

Q: For Oc1ccc(/C=C/c2cc(O)cc(O)c2)cc1 [trans-resveratrol], which “complete inhibition at 100 μM” value (Pd-Fe-SOD (FSD)) is on record?
A: completely inhibited the activity of the Pd-Fe-SOD isoenzyme

Q: What about the “partial inhibition at 100 μM” value (Pd-Mn-SOD (MSD)) of the same compound?
A: RESV partly inhibited the activity of the Pd-Mn-SOD isoenzyme
